Test results taken from patent publication US10202361B2, “Pyridazinones as herbicides” (E I DU PONT DE NEMOURS AND COMPANY, priority 2014, dated 2019).

Columns and labels:
Format in all cases: in vivo
[1] = tested on: barnyardgrass (Echinochloa crus-galli); assay: Test A pre-/postemergence greenhouse herbicide test; conditions: Postemergence, 0 to 100 scale (0 no effect, 100 complete control), approx. 10 d
Text: (§1) Seeds of plant species selected from barnyardgrass (Echinochloa crus-galli), crabgrass, Large (large crabgrass, Digitaria sanguinalis), foxtail, giant (giant foxtail, Setaria faberii), morningglory (Ipomoea spp.), pigweed (Amaranthus retroflexus), velvetleaf (Abutilon theophrasti), wheat (Triticum aestivum), and corn (Zea mays) were planted into a blend of loam soil and sand and treated preemergence with a directed soil spray using test chemicals formulated in a non-phytotoxic solvent mixture which included a surfactant. At the same time these species were also treated with postemergence applications of test chemicals formulated in the same manner.
(§2) Plants ranged in height from 2 to 10 cm and were in the one- to two-leaf stage for the postemergence treatment. Treated plants and untreated controls were maintained in a greenhouse for approximately 10 d, after which time all treated plants were compared to untreated controls and visually evaluated for injury. Plant response ratings, summarized in Table A, are based on a 0 to 100 scale where 0 is no effect and 100 is complete control. A dash (-) response means no test result.

[2] = tested on: corn (Zea mays); assay: as above; conditions: 0 to 100 scale (0 no effect, 100 complete control), approx. 10 d
Text: as §1, §2

[3] = tested on: crabgrass, Large (large crabgrass, Digitaria sanguinalis); assay: as above; conditions: 0 to 100 scale (0 no effect, 100 complete control), approx. 10 d
Text: as §1, §2

[4] = tested on: foxtail, giant (giant foxtail, Setaria faberii); assay: as above; conditions: 0 to 100 scale (0 no effect, 100 complete control), approx. 10 d
Text: as §1, §2

[5] = tested on: morningglory (Ipomoea spp.); assay: as above; conditions: 0 to 100 scale (0 no effect, 100 complete control), approx. 10 d
Text: as §1, §2

[6] = tested on: pigweed (Amaranthus retroflexus); assay: as above; conditions: 0 to 100 scale (0 no effect, 100 complete control), approx. 10 d
Text: as §1, §2

[7] = tested on: velvetleaf (Abutilon theophrasti); assay: as above; conditions: 0 to 100 scale (0 no effect, 100 complete control), approx. 10 d
Text: as §1, §2

[8] = tested on: wheat (Triticum aestivum); assay: as above; conditions: 0 to 100 scale (0 no effect, 100 complete control), approx. 10 d
Text: as §1, §2

[9] = tested on: barnyardgrass (Echinochloa crus-galli); assay: Test B flooded paddy test; conditions: Flood, 250 g ai/ha; scale of 0 to 100, 0 is no effect, 100 is complete control; 13 to 15 d
Procedure: (§3) Plant species in the flooded paddy test selected from rice (Oryza sativa), small-flower sedge, umbrella (small-flower umbrella sedge, Cyperus difformis), ducksalad (Heteranthera limosa), and barnyardgrass (Echinochloa crus-galli) were grown to the 2-leaf stage for testing. At time of treatment, test pots were flooded to 3 cm above the soil surface, treated by application of test compounds directly to the paddy water, and then maintained at that water depth for the duration of the test. Treated plants and controls were maintained in a greenhouse for 13 to 15 d, after which time all species were compared to controls and visually evaluated. Plant response ratings, summarized in Table B, are based on a scale of 0 to 100 where 0 is no effect and 100 is complete control. A dash (-) response means no test result.

[10] = tested on: ducksalad (Heteranthera limosa); assay: Test B flooded paddy test; conditions: Flood, 250 g ai/ha; scale of 0 to 100, 0 is no effect, 100 is complete control; 13 to 15 d
Procedure: as §3

[11] = tested on: rice (Oryza sativa); assay: Test B flooded paddy test; conditions: Flood, 250 g ai/ha; scale of 0 to 100, 0 is no effect, 100 is complete control; 13 to 15 d
Procedure: as §3

[12] = tested on: sedge, umbrella (small-flower umbrella sedge, Cyperus difformis); assay: Test B flooded paddy test; conditions: Flood, 250 g ai/ha; scale of 0 to 100, 0 is no effect, 100 is complete control; 13 to 15 d
Procedure: as §3

| Structure (SMILES) | Plant response rating, Barnyardgrass ([1]; 125 g ai/ha) | Plant response rating, Barnyardgrass ([1]; 500 g ai/ha) | Plant response rating, Corn ([2]; Postemergence, 125 g ai/ha) | Plant response rating, Corn ([2]; Postemergence, 500 g ai/ha) | Plant response rating, Corn ([2]; Preemergence, 125 g ai/ha) | Plant response rating, Corn ([2]; Preemergence, 500 g ai/ha) | Plant response rating, Crabgrass, Large ([3]; Postemergence, 125 g ai/ha) | Plant response rating, Crabgrass, Large ([3]; Postemergence, 500 g ai/ha) | Plant response rating, Crabgrass, Large ([3]; Preemergence, 125 g ai/ha) | Plant response rating, Crabgrass, Large ([3]; Preemergence, 500 g ai/ha) | Plant response rating, Foxtail, Giant ([4]; Postemergence, 125 g ai/ha) | Plant response rating, Foxtail, Giant ([4]; Postemergence, 500 g ai/ha) | Plant response rating, Foxtail, Giant ([4]; Preemergence, 125 g ai/ha) | Plant response rating, Foxtail, Giant ([4]; Preemergence, 500 g ai/ha) | Plant response rating, Morningglory ([5]; Postemergence, 125 g ai/ha) | Plant response rating, Morningglory ([5]; Postemergence, 500 g ai/ha) | Plant response rating, Morningglory ([5]; Preemergence, 125 g ai/ha) | Plant response rating, Morningglory ([5]; Preemergence, 500 g ai/ha) | Plant response rating, Pigweed ([6]; Postemergence, 125 g ai/ha) | Plant response rating, Pigweed ([6]; Postemergence, 500 g ai/ha) | also measured |
| --- | --- | --- | --- | --- | --- | --- | --- | --- | --- | --- | --- | --- | --- | --- | --- | --- | --- | --- | --- | --- | --- |
| Cc1cc(=O)n(-c2ccc(F)cc2)nc1Oc1cc(C(F)(F)F)ccn1 [Compound 10] | 0 | 0 | 0 | 10 | 0 | 0 | 10 | 20 | 0 | 10 | 0 | 10 | 0 | 20 | 30 | 30 | 0 | 0 | 30 | 60 | Plant response rating, Pigweed ([6]; Preemergence, 125 g ai/ha): 0; Plant response rating, Pigweed ([6]; Preemergence, 500 g ai/ha): 30; Plant response rating, Velvetleaf ([7]; Postemergence, 125 g ai/ha): 0; Plant response rating, Velvetleaf ([7]; Postemergence, 500 g ai/ha): 10; Plant response rating, Velvetleaf ([7]; Preemergence, 125 g ai/ha): 0; Plant response rating, Velvetleaf ([7]; Preemergence, 500 g ai/ha): 0; Plant response rating, Wheat ([8]; Postemergence, 125 g ai/ha): 0; Plant response rating, Wheat ([8]; Postemergence, 500 g ai/ha): 0; Plant response rating, Wheat ([8]; Preemergence, 125 g ai/ha): 0; Plant response rating, Wheat ([8]; Preemergence, 500 g ai/ha): 0; Plant response rating, Barnyardgrass [9]: 0; Plant response rating, Ducksalad [10]: 0; Plant response rating, Rice [11]: 0; Plant response rating, Sedge, Umbrella [12]: 0 |
| Cc1cc(Oc2cccc(C(F)(F)F)n2)nn(-c2ccc(F)cc2)c1=O [Compound 11] | 0 | 0 | 0 | 0 | 0 | 0 | 10 | 20 | 0 | 10 | 10 | 20 | 0 | 0 | 20 | 30 | 0 | 0 | 60 | 70 | Plant response rating, Pigweed ([6]; Preemergence, 125 g ai/ha): 0; Plant response rating, Pigweed ([6]; Preemergence, 500 g ai/ha): 0; Plant response rating, Velvetleaf ([7]; Postemergence, 125 g ai/ha): 0; Plant response rating, Velvetleaf ([7]; Postemergence, 500 g ai/ha): 0; Plant response rating, Velvetleaf ([7]; Preemergence, 125 g ai/ha): 0; Plant response rating, Velvetleaf ([7]; Preemergence, 500 g ai/ha): 0; Plant response rating, Wheat ([8]; Postemergence, 125 g ai/ha): 0; Plant response rating, Wheat ([8]; Postemergence, 500 g ai/ha): 0; Plant response rating, Wheat ([8]; Preemergence, 125 g ai/ha): 0; Plant response rating, Wheat ([8]; Preemergence, 500 g ai/ha): 0; Plant response rating, Barnyardgrass [9]: 0; Plant response rating, Ducksalad [10]: 0; Plant response rating, Rice [11]: 0; Plant response rating, Sedge, Umbrella [12]: 0 |
| Cc1cc(=O)n(-c2ccc(F)cc2)nc1Oc1cccc(C(F)(F)F)n1 [Compound 12] | 40 | 70 | 10 | 50 | 0 | 30 | 20 | 70 | 100 | 100 | 20 | 80 | 80 | 100 | 50 | 90 | 0 | 50 | 60 | 90 | Plant response rating, Pigweed ([6]; Preemergence, 125 g ai/ha): 90; Plant response rating, Pigweed ([6]; Preemergence, 500 g ai/ha): 100; Plant response rating, Velvetleaf ([7]; Postemergence, 125 g ai/ha): 40; Plant response rating, Velvetleaf ([7]; Postemergence, 500 g ai/ha): 60; Plant response rating, Velvetleaf ([7]; Preemergence, 125 g ai/ha): 30; Plant response rating, Velvetleaf ([7]; Preemergence, 500 g ai/ha): 70; Plant response rating, Wheat ([8]; Postemergence, 125 g ai/ha): 0; Plant response rating, Wheat ([8]; Postemergence, 500 g ai/ha): 20; Plant response rating, Wheat ([8]; Preemergence, 125 g ai/ha): 0; Plant response rating, Wheat ([8]; Preemergence, 500 g ai/ha): 0; Plant response rating, Barnyardgrass [9]: 20; Plant response rating, Ducksalad [10]: 0; Plant response rating, Rice [11]: 20; Plant response rating, Sedge, Umbrella [12]: 0 |
